The source of these data is PubChem BioAssay AID274 (DTP/NCI, 2004).

In the assay the test system is BDF1 mice, Lewis lung carcinoma iv, survival T/C. Description: NCI In Vivo Anticancer Drug Screen. Data for tumor model Lewis Lung Carcinoma (intravenous) in B6D2F1 (BDF1) mice. To be noted: endpoint: median survival time, schedule: Q01DX009 (ip), higher = longer survival. On the procedure: The antitumor activity of compounds was measured in mice bearing transplantable tumors. Survival or tumor size were measured and the results are expressed as the measurement made in the treated group (T) divided by the measurement made in the vehicle treated control group (C). The tumor model used in this assay is Lewis Lung Carcinoma (intravenous) in B6D2F1 (BDF1) mice

[1] abbreviates: dose: 12.5 mg/kg/injection, vehicle: saline with Tween-80.
Setting [2] is: dose: 25.0 mg/kg/injection, vehicle: saline with Tween-80.
Where [3] appears, read: dose: 50.0 mg/kg/injection, vehicle: saline with Tween-80.
Setting [4] is: dose: 16.0 mg/kg/injection, vehicle: saline.
[5] abbreviates: dose: 3.12 mg/kg/injection, vehicle: saline with Tween-80.
The mark [6] stands for this setting: dose: 6.25 mg/kg/injection, vehicle: saline with Tween-80.
The mark [7] stands for this setting: dose: 100.0 mg/kg/injection, vehicle: saline with Tween-80.
Setting [8] is: dose: 200.0 mg/kg/injection, vehicle: saline with Tween-80.
Setting [9] is: dose: 400.0 mg/kg/injection, vehicle: saline with Tween-80.

Each structure is given as a SMILES string. Inconclusive results and toxic doses are left out.

As for `Clc1cc(Cl)nc(N2CC2)n1`, the T/C runs as follows: (dose: 1.25 mg/kg/injection, vehicle: saline) 91 % of control; (dose: 2.5 mg/kg/injection, vehicle: saline) 103 % of control; (dose: 5.0 mg/kg/injection, vehicle: saline with Tween-80) 114 % of control; (dose: 5.0 mg/kg/injection, vehicle: saline) 103 % of control.
Take `NC(=O)c1ncn(C2OC(CO)C(O)C2O)n1` (stereo not drawn): the T/C is 110 % of control (dose: 10.0 mg/kg/injection, vehicle: saline); 110 % of control (dose: 20.0 mg/kg/injection, vehicle: saline); 101 % of control (dose: 40.0 mg/kg/injection, vehicle: saline); 97 % of control (dose: 80.0 mg/kg/injection, vehicle: saline); 106 % of control (dose: 160.0 mg/kg/injection, vehicle: saline).
As for `O=C1C(Cl)=C(Cl)C(=O)C2=C1C1c3ccccc3C2c2ccccc21`, the T/C runs as follows: under setting [1], 104 % of control; under setting [2], 103 % of control; under setting [3], 103 % of control.
For the compound `C1CCC2[N-]CC3CCCCC3[N-]CC3CCCCC3[N-]CC3CCCCC3[N-]CC2C1.[Cu]` (stereo not drawn), the T/C (dose: 0.78 mg/kg/injection, vehicle: Klucel (hydroxypropylcellulose) (HPC)) is 106 % of control; the T/C (dose: 3.13 mg/kg/injection, vehicle: Klucel (hydroxypropylcellulose) (HPC)) was 112 % of control; the T/C (dose: 6.25 mg/kg/injection, vehicle: Klucel (hydroxypropylcellulose) (HPC)) is 113 % of control.
Consider `CN=C(N)N/N=C(\C)c1ccc2oc3ccc(/C(C)=N/NC(N)=NC)cc3c2c1`, for which the T/C is 98 % of control under setting [1] and 118 % of control under setting [2].
In the case of `CC[C@H]1CN2CCc3cc(OC)c(OC)cc3[C@@H]2C[C@@H]1C[C@H]1NCCc2cc(O)c(OC)cc21`, the T/C (dose: 2.0 mg/kg/injection, vehicle: saline) is 109 % of control; the T/C (dose: 4.0 mg/kg/injection, vehicle: saline) was 100 % of control; the T/C (dose: 8.0 mg/kg/injection, vehicle: saline) is 116 % of control; the T/C under setting [4] is 116 % of control.
`[Cl][Hg][Cl]`: the T/C reads like this: (dose: 0.2 mg/kg/injection, vehicle: saline) 95 % of control; (dose: 0.4 mg/kg/injection, vehicle: saline) 99 % of control; (dose: 0.78 mg/kg/injection, vehicle: saline) 93 % of control; (dose: 1.56 mg/kg/injection, vehicle: saline) 93 % of control.
`O=c1cc(CCl)[nH]nc1CCl`: the T/C is, setting by setting: under setting [5], 98 % of control; under setting [6], 96 % of control; under setting [1], 96 % of control.
As to `CS(=O)(=O)[O-].CS(=O)(=O)[O-].NC1CCCCC1N.[Pt+4]` (stereo not drawn), the T/C reads like this: (dose: 0.31 mg/kg/injection, vehicle: dextrose) 113 % of control; (dose: 0.62 mg/kg/injection, vehicle: dextrose) 98 % of control; (dose: 1.25 mg/kg/injection, vehicle: dextrose) 91 % of control.
`O=C1C2(Cl)C3(Cl)C4(Cl)C(Cl)(Cl)C5(Cl)[C@]3(Cl)C1(Cl)[C@]5(Cl)C24Cl` (stereo partly drawn): the T/C runs as follows: (dose: 1.56 mg/kg/injection, vehicle: saline with Tween-80) 301 % of control; under setting [5], 110 % of control; under setting [6], 95 % of control; under setting [1], 122 % of control.
Turning to `COc1ccc(-c2c(C)c(C(=O)O)nc(-c3ccc4c(O)c(OC)c5c(c4n3)=NC(C)(C)N=5)c2N)c(O)c1OC`, the T/C is, setting by setting: (dose: 10.0 mg/kg/injection, vehicle: saline with Tween-80) 113 % of control; (dose: 20.0 mg/kg/injection, vehicle: saline with Tween-80) 103 % of control; (dose: 40.0 mg/kg/injection, vehicle: saline with Tween-80) 98 % of control.
Take `CCCCCC(O)C1C(=O)OC(C)C(O)/C=C/C=C/C=C/C=C\C=C(\C)C(O)CC(O)CC(O)CC(O)CC(O)CC(O)CC1O` (stereo not drawn): the T/C is 103 % of control (dose: 3.12 mg/kg/injection, vehicle: distilled water + alcohol); 96 % of control (dose: 6.25 mg/kg/injection, vehicle: distilled water + alcohol); 106 % of control (dose: 12.5 mg/kg/injection, vehicle: distilled water + alcohol); 96 % of control (dose: 25.0 mg/kg/injection, vehicle: distilled water + alcohol).
With `CC12CC(C(=O)O)C3(O)CC(C)(C1)CC(C)(C2)C3` (stereo not drawn) (tested in a mixture with another compound), the T/C was 99 % of control under setting [1]; 86 % of control under setting [2]; 89 % of control under setting [3]; 94 % of control under setting [7]; 99 % of control under setting [8].
As for `O=C(CCl)N1c2ccccc2Oc2cc3ccccc3cc21`, the T/C reads like this: under setting [7], 107 % of control; under setting [8], 116 % of control; under setting [9], 111 % of control.
On to `CC(=O)CC(C)=O.CC(=O)CC(C)=O.O=N[O-].O=N[O-].[Co]`, for which the T/C runs as follows: under setting [1], 103 % of control; under setting [2], 96 % of control; under setting [3], 107 % of control.
Regarding `COc1cc(NCCCCCCCNC(C)C)c2nccc(C)c2c1`, the T/C by setting is: (dose: 3.12 mg/kg/injection, vehicle: saline) 94 % of control; (dose: 6.25 mg/kg/injection, vehicle: saline) 100 % of control; (dose: 12.5 mg/kg/injection, vehicle: saline) 98 % of control; (dose: 25.0 mg/kg/injection, vehicle: saline) 108 % of control.
As to `Nc1ccn(C2OC(COP(=O)(O)O)C(O)C2O)c(=O)n1` (stereo not drawn), the T/C reads like this: under setting [4], 121 % of control; (dose: 32.0 mg/kg/injection, vehicle: saline) 106 % of control.
Regarding `CCCCCCCCCCCCCCCCCCNC(=S)N/N=C/c1ccc(Cl)cc1Cl`, the T/C under setting [7] is 110 % of control, the T/C under setting [8] was 108 % of control and the T/C under setting [9] was 93 % of control.
On to `O=CC(O)C(O)C(O)C(O)C(=O)O.[NH-]C1CCCCC1[NH-].[Pt+2]` (stereo not drawn), for which the T/C was 92 % of control (dose: 0.1 mg/kg/injection, vehicle: suspension in saline); 92 % of control (dose: 0.2 mg/kg/injection, vehicle: suspension in saline); 104 % of control (dose: 0.39 mg/kg/injection, vehicle: suspension in saline); 112 % of control (dose: 0.78 mg/kg/injection, vehicle: suspension in saline); 108 % of control (dose: 1.56 mg/kg/injection, vehicle: suspension in saline).
As for `COCC(O)Cn1ccnc1[N+](=O)[O-]` (stereo not drawn), the T/C is, setting by setting: (dose: 12.5 mg/kg/injection, vehicle: water) 96 % of control; (dose: 25.0 mg/kg/injection, vehicle: water) 92 % of control; (dose: 50.0 mg/kg/injection, vehicle: water) 96 % of control; (dose: 100.0 mg/kg/injection, vehicle: water) 100 % of control; (dose: 200.0 mg/kg/injection, vehicle: water) 92 % of control; (dose: 400.0 mg/kg/injection, vehicle: water) 96 % of control.
